Columns and labels:
H9 [1] = test: Inhibitory activity was evaluated against HIV-1 in H9 and Sup T1 cell lines as assessed by syncytium formation and reverse transcriptase assay; format: functional, cell-based; details: Homo sapiens
[2] = biological target: Human immunodeficiency virus type 1 protease (Human immunodeficiency virus 1, UniProt Q72874); test: Compound was tested for its inhibitory activity against HIV-1 protease
[3] = biological target: Human immunodeficiency virus type 1 protease (Human immunodeficiency virus 1) (UniProt Q72874); test: Bimolecular rate constant for the formation of HIV-1 protease complex was evaluated
H9 [4] = test: Inhibitory activity was evaluated against HIV-1 protease by using reverse transcription assay; format: functional, cell-based; details: Homo sapiens
Renin = biological target: T1, Renin (Homo sapiens, UniProt P00797); test: Inhibition against human renin was determined; IA means inactive
T1 sequence (P00797 whole entry): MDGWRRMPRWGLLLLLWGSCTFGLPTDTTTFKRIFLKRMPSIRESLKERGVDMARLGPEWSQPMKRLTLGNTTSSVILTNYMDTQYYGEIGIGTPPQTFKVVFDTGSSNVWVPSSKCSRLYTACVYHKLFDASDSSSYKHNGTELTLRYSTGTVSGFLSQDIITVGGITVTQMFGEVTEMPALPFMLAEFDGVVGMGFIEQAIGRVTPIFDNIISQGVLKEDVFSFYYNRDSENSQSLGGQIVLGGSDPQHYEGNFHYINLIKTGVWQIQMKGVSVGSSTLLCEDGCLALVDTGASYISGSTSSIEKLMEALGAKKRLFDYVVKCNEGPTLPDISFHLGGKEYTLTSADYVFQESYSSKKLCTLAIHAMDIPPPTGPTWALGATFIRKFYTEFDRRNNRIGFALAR

Cathepsin D = Cathepsin D (Homo sapiens, UniProt P07339); test: Inhibition against human cathepsin D was determined
Chain of Cathepsin D (P07339 65-162 limits assumed): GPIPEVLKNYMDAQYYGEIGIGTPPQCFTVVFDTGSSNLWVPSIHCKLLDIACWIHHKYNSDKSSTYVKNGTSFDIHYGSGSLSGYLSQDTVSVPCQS
Chain of Cathepsin D (P07339 169-412 limits assumed): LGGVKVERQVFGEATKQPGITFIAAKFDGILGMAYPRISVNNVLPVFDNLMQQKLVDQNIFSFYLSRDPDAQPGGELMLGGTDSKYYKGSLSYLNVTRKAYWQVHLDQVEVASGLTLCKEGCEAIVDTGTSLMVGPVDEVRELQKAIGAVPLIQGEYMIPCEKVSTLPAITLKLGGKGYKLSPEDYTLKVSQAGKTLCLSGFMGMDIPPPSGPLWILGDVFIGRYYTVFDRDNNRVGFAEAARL

Row | Structure (SMILES) | IC50 (H9 [1]) | Ki [2] | K inact/Ki [3] | IC50 (H9 [4]) | IC50 (Renin) | IC50 (Cathepsin D)
1 | CC(C)N(C(=O)c1ccccc1)S(=O)(=O)CC[C@@H]1O[C@@H]1[C@H](Cc1ccccc1)NC(=O)[C@@H](NC(=O)OCc1ccccc1)C(C)(C)S(C)(=O)=O | 15 nM | 3.6 nM | 917000 M⁻¹ s⁻¹ |  |  | 
2 | CC(C)C(NC(=O)C[C@@H]1O[C@@H]1[C@H](Cc1ccccc1)NC(=O)[C@H](CC(N)=O)NC(=O)c1ccc2ccccc2n1)C(C)C | 20 nM |  | 3.33e+06 M⁻¹ s⁻¹ |  |  | 
3 | CCN(C(C)C)S(=O)(=O)CC[C@@H]1O[C@@H]1[C@H](Cc1ccccc1)NC(=O)[C@@H](NC(=O)c1cccs1)C(C)(C)S(C)(=O)=O | 18.2 nM | 3.1 nM | 1.05e+06 M⁻¹ s⁻¹ |  |  | 
4 | CCN(C(C)C)S(=O)(=O)CC[C@@H]1O[C@@H]1[C@H](Cc1ccccc1)NC(=O)[C@@H](NC(=O)OCc1ccccc1)C(C)(C)S(C)(=O)=O |  | 0.8 nM | 1.63e+06 M⁻¹ s⁻¹ | 10.9 nM |  | 
5 | CC(C)(C)NS(=O)(=O)CC[C@@H]1O[C@@H]1[C@H](Cc1ccccc1)NC(=O)C(CC(N)=O)NC(=O)c1ccc2ccccc2n1 (stereo partly specified) | 30 nM | 12.6 nM | 250000 M⁻¹ s⁻¹ |  |  | 
6 | CCN(c1ccccc1)S(=O)(=O)CC[C@@H]1O[C@@H]1[C@H](Cc1ccccc1)NC(=O)[C@@H](NC(=O)c1ccc2ccccc2n1)C(C)(C)S(C)(=O)=O | 10.7 nM | 5 nM | 650000 M⁻¹ s⁻¹ |  |  | 
7 | CCN(c1ccccc1)S(=O)(=O)CC[C@@H]1O[C@@H]1[C@H](Cc1ccccc1)NC(=O)[C@@H](NC(=O)OCc1ccccc1)C(C)(C)S(C)(=O)=O | 13.8 nM | 4.6 nM | 717000 M⁻¹ s⁻¹ |  |  | 
8 | CC(C)(C)NS(=O)(=O)CC[C@@H]1O[C@@H]1[C@H](Cc1ccccc1)NC(=O)[C@@H](NC(=O)OCc1ccccc1)C(C)(C)S(C)(=O)=O | 20.2 nM | 0.7 nM | 1.33e+06 M⁻¹ s⁻¹ |  |  | 
9 | CCN(CC(C)C)S(=O)(=O)CC[C@@H]1O[C@@H]1[C@H](Cc1ccccc1)NC(=O)[C@@H](NC(=O)OCc1ccccc1)C(C)(C)S(C)(=O)=O | 10.7 nM | 2.9 nM | 1.15e+06 M⁻¹ s⁻¹ |  |  | 
10 | CCN(C(C)C)S(=O)(=O)CC[C@@H]1O[C@@H]1[C@H](Cc1ccccc1)NC(=O)[C@@H](NC(=O)c1ccc2ccccc2n1)C(C)(C)S(C)(=O)=O | 6.6 nM | 7 nM | 483000 M⁻¹ s⁻¹ |  | Not Active | 8200 nM
